Experimental data as given in ChEMBL document CHEMBL1201862, “PubChem BioAssay data set” (2004).
The source made the active and inactive calls.

Experiments:
[1] = molecular target: T1, Nuclear receptor subfamily 0 group B member 1 (Homo sapiens, UniProt P51843); assay type: functional, cell-based;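 note: HEK293T cells transfected with SF-1 and DAX-1 plus StAR promoter luciferase reporter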
T1 sequence (P51843 whole entry): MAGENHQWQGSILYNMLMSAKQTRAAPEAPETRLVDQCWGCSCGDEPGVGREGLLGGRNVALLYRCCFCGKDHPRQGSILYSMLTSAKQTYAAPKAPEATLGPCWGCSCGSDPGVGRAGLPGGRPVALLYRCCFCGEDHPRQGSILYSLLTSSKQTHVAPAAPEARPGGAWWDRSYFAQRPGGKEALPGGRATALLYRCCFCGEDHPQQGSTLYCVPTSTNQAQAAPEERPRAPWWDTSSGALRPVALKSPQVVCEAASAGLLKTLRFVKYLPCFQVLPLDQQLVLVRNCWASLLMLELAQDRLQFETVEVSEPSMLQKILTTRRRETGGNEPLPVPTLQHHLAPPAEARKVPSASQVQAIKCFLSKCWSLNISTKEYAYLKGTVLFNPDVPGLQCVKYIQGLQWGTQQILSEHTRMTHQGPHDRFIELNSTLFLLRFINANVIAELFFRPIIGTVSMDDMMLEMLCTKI

cells = assay type: functional, cell-based
[2] = molecular target: T2, Corticotropin-releasing factor receptor 2/Corticotropin-releasing factor-binding protein (Homo sapiens, UniProt P24387+Q13324); assay: Dose Response confirmation of uHTS hits for small molecule antagonists of the CRF-binding protein and CRF-R2 receptor complex.; assay type: functional; settings: read-out: IC50_Mean
T2 sequence (Q13324 whole entry): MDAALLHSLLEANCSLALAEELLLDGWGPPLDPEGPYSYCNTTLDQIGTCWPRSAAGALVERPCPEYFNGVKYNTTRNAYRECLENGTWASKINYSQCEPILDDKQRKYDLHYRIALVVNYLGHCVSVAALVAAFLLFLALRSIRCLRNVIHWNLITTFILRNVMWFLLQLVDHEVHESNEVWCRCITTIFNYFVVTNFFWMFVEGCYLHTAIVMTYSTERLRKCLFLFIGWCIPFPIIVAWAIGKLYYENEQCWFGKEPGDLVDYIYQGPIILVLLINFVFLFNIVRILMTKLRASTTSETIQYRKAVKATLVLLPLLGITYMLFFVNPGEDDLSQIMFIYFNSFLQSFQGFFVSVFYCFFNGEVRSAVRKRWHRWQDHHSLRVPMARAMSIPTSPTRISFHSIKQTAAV
T2 sequence (P24387 whole entry): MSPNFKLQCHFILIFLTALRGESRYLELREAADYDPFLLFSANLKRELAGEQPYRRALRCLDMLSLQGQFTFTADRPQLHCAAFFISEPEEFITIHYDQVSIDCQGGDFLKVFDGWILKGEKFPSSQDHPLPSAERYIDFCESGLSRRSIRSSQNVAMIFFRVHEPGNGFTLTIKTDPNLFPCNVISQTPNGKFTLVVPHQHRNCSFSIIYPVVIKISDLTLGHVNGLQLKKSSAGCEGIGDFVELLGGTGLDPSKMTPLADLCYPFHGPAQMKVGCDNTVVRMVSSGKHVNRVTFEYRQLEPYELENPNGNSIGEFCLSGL

[3] = molecular target: T2, Corticotropin-releasing factor receptor 2/Corticotropin-releasing factor-binding protein; assay: activators of CRF receptor 2 with binding protein – uHTS hits, confirmation (AID 602473); assay type: functional; settings: read-out: EC50_Mean
[4] = CRF-BP/CRF-R2 complex antagonists, dose response, cell-based, uHTS hits, 384-well (AID 651639); assay type: functional, Homo sapiens; settings: read-out: IC50_Mean
[5] = molecular target: DNA dC->dU-editing enzyme APOBEC-3G (Homo sapiens, UniProt Q9HC16); assay type: functional;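 note: Dose-response counterscreen measuring inhibition of APOBEC3G DNA deaminase activity, run while confirming APOBEC3A inhibitors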
DNA dC->dU-editing enzyme APOBEC-3G, sequence (Q9HC16 whole entry): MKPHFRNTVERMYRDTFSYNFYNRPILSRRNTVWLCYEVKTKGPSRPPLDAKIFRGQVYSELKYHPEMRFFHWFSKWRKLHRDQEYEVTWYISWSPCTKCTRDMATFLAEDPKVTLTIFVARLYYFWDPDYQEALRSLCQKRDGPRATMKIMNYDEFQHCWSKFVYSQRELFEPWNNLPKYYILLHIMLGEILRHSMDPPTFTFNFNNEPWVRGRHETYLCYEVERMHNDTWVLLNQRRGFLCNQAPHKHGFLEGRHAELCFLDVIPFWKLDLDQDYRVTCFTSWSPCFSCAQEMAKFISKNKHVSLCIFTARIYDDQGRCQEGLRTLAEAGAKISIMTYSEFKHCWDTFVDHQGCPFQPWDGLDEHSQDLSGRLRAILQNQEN

[6] = molecular target: DNA dC->dU-editing enzyme APOBEC-3A (Homo sapiens, UniProt P31941); assay: Dose Response confirmation of small molecule APOBEC3A DNA Deaminase Inhibitors via a fluorescence-based single-stranded DNA deaminase assay. [Related pubchem assays (depositor defined):AID493011, AID493024]; assay type: functional
DNA dC->dU-editing enzyme APOBEC-3A, sequence (P31941 whole entry): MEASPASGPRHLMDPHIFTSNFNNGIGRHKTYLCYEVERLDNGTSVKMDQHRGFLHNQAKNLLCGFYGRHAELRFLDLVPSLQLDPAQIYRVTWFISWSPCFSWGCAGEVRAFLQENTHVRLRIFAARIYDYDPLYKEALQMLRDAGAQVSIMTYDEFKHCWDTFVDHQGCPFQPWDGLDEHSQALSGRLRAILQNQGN

[7] = molecular target: T3, Small ubiquitin-related modifier 1 (Homo sapiens, UniProt P63165); assay: inhibitors of SUMO1 partner interactions, dose response, biochemical, FRET (AID 624383); assay type: functional; settings: read-out: IC50_Mean
T3 sequence (P63165 whole entry): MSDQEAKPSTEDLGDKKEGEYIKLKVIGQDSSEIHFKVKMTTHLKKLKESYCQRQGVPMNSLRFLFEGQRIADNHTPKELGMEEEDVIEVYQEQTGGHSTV

[8] = molecular target: T3, Small ubiquitin-related modifier 1; assay: inhibitors of SUMO1 peptide binding, dose response, biochemical, fluorescence polarization, uHTS hits (AID 624382); assay type: functional; settings: read-out: IC50_Mean
[9] = HEK293 cell cytotoxicity, dose response, cytotoxicity control, plate reader, cherry-picked samples (AID 743446); assay type: functional, cell-based
[10] = HepG2 cell cytotoxicity, dose response, cytotoxicity control, plate reader, cherry-pick, antagonist series (AID 743416); assay type: functional, cell-based
[11] = A549 cell cytotoxicity, dose response, cytotoxicity control, plate reader, cherry-pick, antagonist series (AID 743412); assay type: functional, cell-based
[12] = LGR2 antagonists, dose response, cell-based, HEK293, CRE-luciferase reporter, cherry pick, set 2 (AID 743343); assay type: functional;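 note: transfected cells were stimulated with diluted bursicon conditioned medium after compound addition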
[13] = molecular target: T4, Polyadenylate-binding protein 1 (Homo sapiens, UniProt P11940); assay: PABP1 MLLE–PAM2 binding inhibitor potency, dose response, biochemical, fluorescence polarization, FITC-PAM2 peptide (AID 602259); assay type: functional; settings: read-out: IC50_Mean
T4 sequence (P11940 whole entry): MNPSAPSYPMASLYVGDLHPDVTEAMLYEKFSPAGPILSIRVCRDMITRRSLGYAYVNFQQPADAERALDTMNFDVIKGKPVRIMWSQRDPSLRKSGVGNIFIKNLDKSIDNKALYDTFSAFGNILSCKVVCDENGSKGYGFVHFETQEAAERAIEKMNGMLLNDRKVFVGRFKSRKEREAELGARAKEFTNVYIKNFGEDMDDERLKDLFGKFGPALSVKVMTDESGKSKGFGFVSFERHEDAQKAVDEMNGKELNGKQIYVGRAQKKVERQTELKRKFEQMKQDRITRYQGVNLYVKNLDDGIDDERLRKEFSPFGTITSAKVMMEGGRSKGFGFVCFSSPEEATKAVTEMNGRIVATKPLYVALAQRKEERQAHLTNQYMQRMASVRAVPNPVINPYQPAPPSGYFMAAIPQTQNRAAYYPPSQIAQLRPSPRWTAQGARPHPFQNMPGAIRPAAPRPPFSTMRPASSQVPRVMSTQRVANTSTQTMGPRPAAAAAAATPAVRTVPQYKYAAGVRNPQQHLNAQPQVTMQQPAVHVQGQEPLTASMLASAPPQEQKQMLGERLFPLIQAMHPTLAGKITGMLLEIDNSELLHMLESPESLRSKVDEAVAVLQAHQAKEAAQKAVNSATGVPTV

Vero = Vero cell cytotoxicity, cytotoxicity control for flavivirus capping enzyme inhibitors (AID 588742); assay type: functional; settings: Chlorocebus sabaeus
Genome polyprotein = Genome polyprotein (dengue virus type 2, UniProt P29990); assay: Dengue-2 NS5 methyltransferase inhibitors, primary screen, biochemical, confirmation dose response (AID 588689); assay type: functional
Genome polyprotein, sequence (P29990 2492-3391 limits assumed): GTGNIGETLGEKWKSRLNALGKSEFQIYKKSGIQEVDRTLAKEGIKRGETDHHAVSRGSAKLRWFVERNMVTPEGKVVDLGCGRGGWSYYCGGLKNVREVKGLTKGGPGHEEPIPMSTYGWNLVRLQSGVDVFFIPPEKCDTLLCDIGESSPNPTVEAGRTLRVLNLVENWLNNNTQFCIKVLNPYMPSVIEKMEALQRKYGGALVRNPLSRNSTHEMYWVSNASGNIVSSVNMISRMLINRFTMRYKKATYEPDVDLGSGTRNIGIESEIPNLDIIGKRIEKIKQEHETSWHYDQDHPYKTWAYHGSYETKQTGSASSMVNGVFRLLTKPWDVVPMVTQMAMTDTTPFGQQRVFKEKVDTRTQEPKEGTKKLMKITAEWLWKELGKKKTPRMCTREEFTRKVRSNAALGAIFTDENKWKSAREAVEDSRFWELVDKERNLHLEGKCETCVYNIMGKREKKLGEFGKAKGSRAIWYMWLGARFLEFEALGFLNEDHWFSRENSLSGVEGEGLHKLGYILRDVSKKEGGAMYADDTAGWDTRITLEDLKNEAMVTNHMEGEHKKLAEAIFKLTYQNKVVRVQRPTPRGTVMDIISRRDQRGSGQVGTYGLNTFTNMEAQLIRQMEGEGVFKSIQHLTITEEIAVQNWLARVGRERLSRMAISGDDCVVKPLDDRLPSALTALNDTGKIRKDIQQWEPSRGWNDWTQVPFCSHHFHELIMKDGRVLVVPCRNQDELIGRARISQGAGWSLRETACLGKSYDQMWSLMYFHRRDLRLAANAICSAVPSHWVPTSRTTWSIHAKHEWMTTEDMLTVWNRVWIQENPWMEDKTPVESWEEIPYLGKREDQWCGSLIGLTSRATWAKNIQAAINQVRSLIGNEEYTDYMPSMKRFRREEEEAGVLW

[14] = molecular target: Long-chain-fatty-acid--AMP ligase FadD28 (Mycobacterium tuberculosis, UniProt P9WQ59); assay: Fluorescence polarization aasay to screen for inhibitors that compete for the binding of FadD28 to a bisubstrate Measured in Biochemical System Using Plate Reader - 2147-01_Inhibitor_Dose_CherryPick_Activity.; assay type: functional, Mycobacterium tuberculosis H37Rv
Long-chain-fatty-acid--AMP ligase FadD28, sequence (P9WQ59 whole entry): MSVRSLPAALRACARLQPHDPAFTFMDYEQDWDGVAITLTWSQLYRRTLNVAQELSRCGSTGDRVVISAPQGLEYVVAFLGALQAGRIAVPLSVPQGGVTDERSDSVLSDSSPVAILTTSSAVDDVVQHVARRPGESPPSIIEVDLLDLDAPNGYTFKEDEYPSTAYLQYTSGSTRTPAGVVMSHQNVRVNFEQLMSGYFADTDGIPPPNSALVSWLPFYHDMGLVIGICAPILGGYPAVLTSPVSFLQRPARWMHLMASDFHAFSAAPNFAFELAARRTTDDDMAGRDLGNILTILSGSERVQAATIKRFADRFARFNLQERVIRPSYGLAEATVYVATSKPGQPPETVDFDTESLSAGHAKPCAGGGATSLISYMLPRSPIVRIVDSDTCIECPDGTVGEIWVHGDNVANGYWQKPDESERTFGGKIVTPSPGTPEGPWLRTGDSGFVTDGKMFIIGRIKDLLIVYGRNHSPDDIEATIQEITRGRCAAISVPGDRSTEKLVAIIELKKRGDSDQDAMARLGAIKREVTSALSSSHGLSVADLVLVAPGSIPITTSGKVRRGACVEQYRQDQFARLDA

[15] = molecular target: T4, Polyadenylate-binding protein 1; assay: PABP1 MLLE–PAM2 interaction inhibitors, dose response, miRNA deadenylation inhibitor project, biochemical, fluorescence polarization, Cy5-PAM2 peptide, secondary (AID 602260); assay type: functional; settings: read-out: IC50_Mean
[16] = molecular target: T5, Carboxy-terminal domain RNA polymerase II polypeptide A small phosphatase 1 (Homo sapiens, UniProt Q9GZU7); assay: inhibitors of CTDSP1, concentration-response testing, biochemical assay, absorbance-based, actives from ultra-high-throughput screening (AID 540297); assay type: functional
T5 sequence (Q9GZU7 whole entry): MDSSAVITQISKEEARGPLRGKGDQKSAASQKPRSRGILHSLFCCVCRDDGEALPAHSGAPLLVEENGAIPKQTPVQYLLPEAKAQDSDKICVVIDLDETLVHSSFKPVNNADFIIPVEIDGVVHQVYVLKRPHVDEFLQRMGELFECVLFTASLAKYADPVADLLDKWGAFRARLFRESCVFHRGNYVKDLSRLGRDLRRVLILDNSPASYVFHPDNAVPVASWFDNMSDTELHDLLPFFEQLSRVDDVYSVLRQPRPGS

Protein skinhead-1 = molecular target: T6, Protein skinhead-1 (Caenorhabditis elegans, UniProt P34707); assay type: functional
T6 sequence (P34707 whole entry): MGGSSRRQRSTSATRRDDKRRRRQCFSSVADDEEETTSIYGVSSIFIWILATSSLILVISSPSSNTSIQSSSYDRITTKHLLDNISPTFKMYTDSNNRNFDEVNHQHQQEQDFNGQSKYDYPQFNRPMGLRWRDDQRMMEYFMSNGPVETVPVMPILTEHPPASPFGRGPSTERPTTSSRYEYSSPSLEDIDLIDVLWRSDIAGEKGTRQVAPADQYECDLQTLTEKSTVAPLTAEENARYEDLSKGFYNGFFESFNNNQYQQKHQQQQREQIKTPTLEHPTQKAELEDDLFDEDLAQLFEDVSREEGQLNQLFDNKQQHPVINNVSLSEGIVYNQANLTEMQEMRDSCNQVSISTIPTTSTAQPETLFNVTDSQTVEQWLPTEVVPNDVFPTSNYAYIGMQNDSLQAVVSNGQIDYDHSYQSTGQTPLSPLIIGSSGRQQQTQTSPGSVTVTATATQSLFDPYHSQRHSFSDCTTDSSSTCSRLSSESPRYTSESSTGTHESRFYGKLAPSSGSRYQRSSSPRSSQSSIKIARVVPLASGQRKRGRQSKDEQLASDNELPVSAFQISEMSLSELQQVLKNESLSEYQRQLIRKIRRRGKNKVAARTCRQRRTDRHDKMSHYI

[17] = molecular target: T7, Low molecular weight phosphotyrosine protein phosphatase (Homo sapiens, UniProt P24666); assay type: functional; settings: read-out: IC50_Mean
T7 sequence (P24666 whole entry): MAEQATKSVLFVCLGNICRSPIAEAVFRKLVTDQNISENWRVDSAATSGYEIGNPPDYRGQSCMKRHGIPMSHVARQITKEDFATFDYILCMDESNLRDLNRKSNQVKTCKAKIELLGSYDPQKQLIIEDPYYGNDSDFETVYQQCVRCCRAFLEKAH

[18] = molecular target: Induced myeloid leukemia cell differentiation protein Mcl-1 (Homo sapiens, UniProt Q07820); assay type: functional
Induced myeloid leukemia cell differentiation protein Mcl-1, sequence (Q07820 whole entry): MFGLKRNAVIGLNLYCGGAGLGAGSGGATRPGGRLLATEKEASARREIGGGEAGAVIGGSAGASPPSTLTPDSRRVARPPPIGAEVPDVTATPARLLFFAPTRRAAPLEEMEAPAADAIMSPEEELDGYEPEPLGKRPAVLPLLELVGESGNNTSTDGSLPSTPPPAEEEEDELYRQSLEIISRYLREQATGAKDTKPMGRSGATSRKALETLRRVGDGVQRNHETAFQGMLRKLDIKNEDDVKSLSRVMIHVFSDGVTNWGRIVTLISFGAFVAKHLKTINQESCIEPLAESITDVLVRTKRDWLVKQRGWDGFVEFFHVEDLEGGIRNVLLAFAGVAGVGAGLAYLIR

[19] = molecular target: T7, Low molecular weight phosphotyrosine protein phosphatase; assay type: functional; settings: read-out: IC50_Mean; remark: listed apart in the source
[20] = MC4R antagonists, dose response, counter-screen for LGR2 antagonist project, cell-based, plate reader, cherry pick (AID 743444); assay type: functional;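 note: transfected HEK 293 cells stimulated with alpha-MSH peptide; potency of inhibitors of the alpha-MSH evoked signal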
NS3 = NS3 (Hepatitis C virus, UniProt A3EZJ3); assay: HCV NS3 helicase inhibitor potency, dose response, biochemical, fluorescence polarization, ChemBridge library (AID 743264)
NS3, sequence (A3EZJ3 whole entry): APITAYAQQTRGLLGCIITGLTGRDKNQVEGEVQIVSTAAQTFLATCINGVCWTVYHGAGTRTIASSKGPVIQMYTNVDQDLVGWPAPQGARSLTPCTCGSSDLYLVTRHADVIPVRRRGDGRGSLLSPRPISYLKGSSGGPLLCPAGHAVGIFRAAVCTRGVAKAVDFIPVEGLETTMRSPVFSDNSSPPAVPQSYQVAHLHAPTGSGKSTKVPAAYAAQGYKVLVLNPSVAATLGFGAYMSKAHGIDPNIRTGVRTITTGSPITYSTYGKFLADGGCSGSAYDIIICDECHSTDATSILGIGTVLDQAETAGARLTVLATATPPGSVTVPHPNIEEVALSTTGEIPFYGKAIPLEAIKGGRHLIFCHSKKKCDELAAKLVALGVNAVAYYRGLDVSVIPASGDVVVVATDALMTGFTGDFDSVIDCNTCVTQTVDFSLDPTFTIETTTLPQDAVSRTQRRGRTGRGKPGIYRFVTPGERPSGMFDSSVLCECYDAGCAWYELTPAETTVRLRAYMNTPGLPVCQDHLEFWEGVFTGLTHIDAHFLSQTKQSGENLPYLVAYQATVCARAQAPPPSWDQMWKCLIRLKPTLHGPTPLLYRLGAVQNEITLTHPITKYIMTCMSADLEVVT

O=C(COc1ccc(F)cc1)Nc1ccc2c(c1)OCCO2
IC50 [1]: > 67.6 µM (inactive)
IC50 (cells): > 67.6 µM (inactive)

Cc1ccc([C@H]2C(C(=O)O)=CC[C@@H](c3ccc(C)cc3)N2S(=O)(=O)c2ccc(C)cc2)cc1
IC50 [2]: 34.5 µM (active)
EC50 [3]: 50.2 µM (active)
IC50 [4]: > 20 µM (inactive)

O=C(COC(=O)c1ccc(F)c(S(=O)(=O)N2CCOCC2)c1)Nc1ccc2[nH]c(=O)[nH]c2c1
IC50 [5]: 25.9 µM (active)
IC50 [6]: 16.1 µM (active)
IC50 [7]: 20.5 µM (inactive)
IC50 [8]: > 66.6 µM (inactive)

CCOCCCn1c(SCc2nc3ccccc3s2)nc2ccccc2c1=O
AC50 [9]: 5.44 µM (active)
AC50 [10]: > 52 µM (inactive)
EC50 [3]: > 53 µM (inactive)
AC50 [11]: 29.8 µM (active)
AC50 [12]: 34.6 µM (active)

O=C(O)c1ccc2c(c1)C(=O)/C(=C/c1ccccc1)C2=O
IC50 [13]: > 66 µM (inactive)
CC50 (Vero): > 40 µM (active)
IC50 (Genome polyprotein): 12.2 µM (active)
AC50 [14]: 37.7 µM (active)
IC50 [15]: > 66 µM (inactive)
IC50 [16]: 3.5 µM (active)

Clc1cccc(-c2nc3ccc(Br)cn3c2Cc2ccccc2)c1
IC50 [1]: > 67.5 µM (inactive)
IC50 (cells): > 67.5 µM (inactive)
IC50 (Protein skinhead-1): > 100 µM (inactive)

Cc1ccc(NC2=NC(=O)S/C2=C\c2ccco2)cc1
IC50 [17]: > 80 µM (inactive)
IC50 [18]: 7.28 µM (active)
IC50 [19]: 23.9 µM (inactive)

C[C@H]1CN([C@@H](C)CO)C(=O)c2cc(NC(=O)Nc3ccc(C(F)(F)F)cc3)ccc2O[C@H]1CN(C)S(=O)(=O)c1cccs1
AC50 [9]: 29.1 µM (active)
AC50 [10]: > 52 µM (inactive)
AC50 [11]: 18 µM (active)
AC50 [12]: 32.4 µM (active)
AC50 [20]: 23.1 µM (active)

O=C(Nc1ccc(Cl)cc1)c1ccc2c(c1)OCCO2
IC50 (NS3): 76.9 µM (active)
